Measured values published in US20230053473A1, “ENHANCING EXPRESSION OF LINE-1 ENCODED ORF2P FOR CANCER THERAPEUTICS” (The Johns Hopkins University, priority 2019, published 2023).

Key:
PKR = PKR (Homo sapiens, UniProt P19525); conditions: in vitro, cited from earlier work
LINE-1(+) RPE cells = assay: Clonogenic growth assay, LINE-1(+) cells; assay type: cell-based
Description: (§1) Viability was determined by clonogenic growth or CellTiter-Glo assay (Promega, Madison, Wis.). WT RPE were assessed by clonogenic growth by transfecting 1e5 cells with 2 μg eGFP (pDA083) or 3 μg LINE-1 (pDA077) plasmid to achieve equimolar ratios. Cells were split to 10 cm growth dishes and selected with G418 24 hours later. In Tet-On assays, 500 cells were plated and doxycycline was added to activate transgene expression. For MMC sensitivity experiments, cells were treated with 100 pM, 1 nM, 10 nM, and 100 nM for 24 hours on day 2 after plating. In VE-821 sensitivity, cells were treated with 1 μM drug or DMSO vehicle throughout the duration of the experiment. For assays in CRISPR knockout cells, knockout cell pools were generated by infecting TP53^KD Tet-On RPE cells with lentivirus encoding either non-targeting control or a gene targeting guide and selecting with puromycin for 1 week. For all assays, after 10-14 days of L1 or control expression, colonies were washed with PBS and fixed (6% gluteraldehyde, 0.5% crystal violet) for 10 minutes. Plates were rinsed in water and air dried, then imaged on a flatbed scanner. Colonies with >50 cells were counted.

FANCD2 = assay: Western blot of FANCD2 monoubiquitination; assay type: cell-based; conditions: NTC-treated cells; 24-hour treatment with 1 μg/ml
Source text: FIGS. 5A-5H. The Fanconi Anemia (FA) pathway is essential in p53-deficient cells. 5A) Network plot of 75 DNA repair genes identified in the screen. Edges indicate known physical interactions. This network is enriched for Fanconi anemia genes (blue nodes). 5B) Model of FA complexes responding to a DNA lesion (vertical line) encountered by a replication fork (blue line=genomic DNA; green line=nascent DNA). Genes are color coded based on the performance of their knockouts in the screen. 5C) Western blot of FANCD2 response to 24-hour treatment with 1 μg/ml mitomycin C (MMC). Cells are treated with FA member sgRNAs or non-targeting-control (NTC). FANCD2 monoubiquitination is assessed as the ratio of FANCD2-L (long) to FANCD2-S (short) band intensities (relative L:S ratio). The ratio is graphed relative to NTC, MMC-treated cells. nd=not determined. Uncropped blot is shown in the Source Data. 5D) Clonogenic growth assay of LINE-1(+) RPE cells with sgRNAs targeting the same genes as in (C). n=3 independent experiments. P value calculated with a one-sided T test. […] Quantification to the right of n=2 independent experiments ±SEM. […] Quantification below of n=2 independent experiments ±SEM. Effect of wildtype LINE-1 is statistically significant as assessed by ANOVA (p=0.0143). […] Right, quantification of FANCD2 foci in EdU+HeLa cells. […] 5H) Left, γH2A.X and 53BP1 focus quantification in EdU+TP53^KD cells. […]

RPA2 = assay: Western blot of chromatin-bound RPA2; assay type: cell-based; conditions: RPE, chromatin-bound protein fractions; 1 μM
Description: FIGS. 6A-6G. LINE-1 activity induces replication stress. 6A) Median count of sgRNAs targeting replication stress signaling genes ATRIP and the 9-1-1 complex (HUS1 and RAD1) during the screen. Error bars indicate 95% confidence intervals. 6B) Clonogenic assay of LINE-1(+) RPE cells (induced with 1 μg/ml doxycycline) with CRISPR-knockout of ATRIP compared to non-targeting-control (NTC). Error bars indicate SEM, n=3 independent experiments. P value is calculated with an unpaired two-sided T test. 6C) Clonogenic assay of LINE-1(+) RPE cells (induced with 1 μg/ml doxycycline) with drug inhibition of ATR kinase by 1 μM VE-821 compared to vehicle (DMSO). Error bars indicate SEM, n=3 independent experiments. P value is calculated with an unpaired two-sided T test. 6D) Western blot of RPA2 occupancy on chromatin induced by LINE-1 compared to luciferase control after 72 hours of expression in RPE. Chromatin-bound protein lysates were used. […] Relative signal intensity for n=2 independent experiments ±SEM is quantified. […] Statistical significance is assessed by ANOVA (p=0.0007). […]
Cells were lysed in RIPA buffer with protease/phosphatase inhibitor (cat#5872, Cell Signaling Technology, Danvers, Mass.) or Laemmli Sample Buffer (cat#1610747, Biorad, Hercules, Calif.) by sonication. […] Quantifications were carried out using Image Studio v4.0. […]

ORF2p = assay: Western blot of ORF2p accumulation in RPE cells with doxycycline-controlled LINE-1 expression construct; assay type: cell-based, human
Source text: (§2) FIGS. 13A and 13B. […] (Day 1 and 3 show little effect. The effect is sustained at day 10. Higher doses of the drug are toxic). The cells used are RPE cells that have a doxycycline (Dox) controlled LINE-1 expression construct. (13A.) Western blot showing ORF2p, ORF1p, and tubulin levels on day 5. Addition of Dox induces LINE-1 expression. Addition of PKRi enhances relative ORF2p expression levels. (13B.) Quantification of ORF2p expression (relative to tubulin) by Western blot as a function PKRi inhibitor dose on different days of the experiment.
Cells were lysed in RIPA buffer with protease/phosphatase inhibitor (cat#5872, Cell Signaling Technology, Danvers, Mass.) or Laemmli Sample Buffer (cat#1610747, Biorad, Hercules, Calif.) by sonication. PAGE was carried out with manufacturer-recommended buffers on 4-20% or 7.5% Mini TGX Gels (Biorad), NuPAGE 4-12% BisTris gels, or NuPAGE 3-8% Tris-Acetate gels (Thermo). Semi-dry transfers were carried out for Biorad gels or NuPAGE BisTris gels at 2.5 A for 5-15 minutes using the Trans-Blot-Turbo (Biorad). Wet transfers were carried out for Tris-Acetate gels at 30V overnight. All blocking was performed with Odyssey Blocking Buffer (Licor). Primary antibodies were incubated with membranes overnight at 4C, then infrared-conjugated secondaries (Licor) were added 1:10,000 and imaged on a Licor Odyssey Scanner. Quantifications were carried out using Image Studio v4.0. Blots were stripped with Reblot Plus Strong Solution (Millipore Sigma).
(§3) (Day 1 and 3 show little effect. The effect is sustained at day 10. Higher doses of the drug are toxic.) The finding is significant as proof-of-principle that specific cellular pathways are involved in uncoupling the expression of LINE-1 encoded proteins. As such increasing ORF2p intracellularly in tumors can cause tumor cell death.

RPE cells = assay type: cell-based
Source text: as §2, §3

luciferase(+) cells = assay: Clonogenic growth assay, luciferase(+) control cells; assay type: cell-based
Description: as §1

[1] = tested on: Tet-On TP53KD cells expressing LINE-1; assay: qRT-PCR of LINE-1-induced IFN response with nucleoside reverse transcriptase inhibitors; assay type: cell-based; conditions: 5 μM for 72 hours
Description: 250,000 Tet-On TP53^KD cells expressing Luciferase or LINE-1 were plated in T25 flasks with 1 ng/mL doxycycline added and treated with 5 μM zalcitabine (ddC) or 5 μM didanosine (ddI) for 72 hours. Cells were lysed and RNA were extracted using Quick-RNA MicroPrep kit (Zymo Research).
cDNA was generated using the iScript kit (Biorad, Hercules, Calif.) following RNA extraction using the Quick-RNA Microprep kit (Zymo). Primers were designed using Primer3 and tested against cDNA to ensure single bands were generated in the PCR. Real-time PCR was performed for 40 cycles (98C×15 seconds, 60C×30 seconds) using SSOAdvanced 2X Master mix (Biorad) on the MyIQ cycler (Biorad). Fold-change expression was determined by the 2^−ΔΔCt method.

TP53KD cells = assay: γH2A.X and 53BP1 nuclear foci quantification in TP53KD cells; assay type: cell-based; conditions: data not shown
Description: (§4) We used either Tet-On TP53^KD cells expressing Luciferase or LINE-1 or HeLa cells transfected with doxycycline-inducible LINE-1 plasmids (pDA007, pDA025, pDA027, pDA033, pDA019) and stably-selected with puromycin for 1-2 weeks. Positive controls were treated with either 6 mM hydroxyurea for 4 hours or 200 ng/mL doxorubicin for 2 hours. 100,000 cells were plated on cover slips and treated with 1000 ng/ml doxycycline for 72 hours. EdU was added for 2 hours and cells were pre-treated with 0.5% Triton X-100 for 5 min, fixed with 3.7% paraformaldehyde for 10 minutes, then permeabilized with 0.5% NP-40 for 10 minutes. EdU Click-iT reaction (ThermoFisher) was performed following manufacturer's instructions. Slides were blocked (1% BSA/PBS-Glycine, 30 minutes) and incubated with polyclonal rabbit FANCD2 (1:1000, Novus Biologicals), rabbit 53BP1 (1:500, Novus Biologicals), or mouse γH2A.X (1:1000, Millipore) for 1 hour at room temperature and then anti-rabbit Alexa Fluor 488 for FANCD2 (1:200, ThermoFisher) and anti-rabbit Alexa Fluor 488 (1:2000, ThermoFisher) and anti-mouse Alexa Fluor 555 (1:2000, ThermoFisher) for 53BP1 and γH2A.X, respectively. Slides were imaged at low magnification with the same equipment as described above with key methodological differences. […] Foci were quantified using a previously published method in MATLAB. […]

HeLa cells = assay: FANCD2 nuclear foci quantification in EdU-labeled HeLa cells; assay type: cell-based; conditions: S phase (EdU+) cells; p=1.7×10^−8
Description: as §4

Sequence of PKR (P19525 whole entry): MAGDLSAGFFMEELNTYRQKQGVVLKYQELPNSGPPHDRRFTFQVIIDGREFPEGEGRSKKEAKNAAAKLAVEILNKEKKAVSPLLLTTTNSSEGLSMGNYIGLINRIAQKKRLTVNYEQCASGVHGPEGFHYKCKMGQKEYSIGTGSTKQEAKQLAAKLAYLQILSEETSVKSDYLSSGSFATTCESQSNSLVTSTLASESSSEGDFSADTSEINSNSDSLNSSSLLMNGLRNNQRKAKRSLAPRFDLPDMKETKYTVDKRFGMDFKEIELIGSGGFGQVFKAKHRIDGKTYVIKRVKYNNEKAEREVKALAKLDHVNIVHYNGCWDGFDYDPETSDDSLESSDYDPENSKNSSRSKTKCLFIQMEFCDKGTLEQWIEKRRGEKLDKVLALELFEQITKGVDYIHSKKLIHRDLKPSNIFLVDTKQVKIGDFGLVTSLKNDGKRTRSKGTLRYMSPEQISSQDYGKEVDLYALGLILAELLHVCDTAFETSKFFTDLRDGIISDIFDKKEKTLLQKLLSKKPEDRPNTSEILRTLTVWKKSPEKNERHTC

Nc1ncc2[nH]cnc2n1 [2-AP, 2-aminopurine]
potency relative to C16 (PKR; competes for ATP at the ATP binding site of PKR): less potent than C16

CO[C@@]12[C@H](COC(N)=O)C3=C(C(=O)C(C)=C(N)C3=O)N1C[C@@H]1N[C@@H]12 [MMC, mitomycin C]
sensitivity of LINE-1(+) cells compared to luciferase-expressing controls (LINE-1(+) RPE cells; dose-response clonogenic assay, 24 hours treatment): 1.9 fold | FANCD2 monoubiquitination (FANCD2-Ub) (FANCD2): induced FANCD2-Ub | chromatin-bound RPA2 (RPA2): induced chromatin-bound RPA2

O=C1Nc2ccc3ncsc3c2C1=Cc1cnc[nH]1 [PKRi, 6,8-dihydro-8-(1H-imidazol-5-ylmethylene)-7H-pyrrolo[2,3-g]benzothiazol-7-one]
accumulation of ORF2p (relative to ORF1p and tubulin) (ORF2p; 0.1 uM, by day 6 of treatment): increases the accumulation of ORF2p | effect on ORF2p accumulation (ORF2p; Day 1 and 3): little effect | accumulation of ORF2p (relative to ORF1p and tubulin) (ORF2p; by day 5 of treatment, Dox-induced RPE cells): dose-dependent increases the accumulation of ORF2p | effect on ORF2p accumulation (ORF2p; day 10): sustained | toxicity (RPE cells): toxic | IC50 (PKR): ~200 nM

CS(=O)(=O)c1ccc(-c2cnc(N)c(C(=O)Nc3ccccc3)n2)cc1 [VE-821]
effect on viability in luciferase(+) cells (luciferase(+) cells; same dose as in LINE-1(+) cells, data not shown): no effect on viability | sensitization of cells to LINE-1 (ATR inhibition) (LINE-1(+) RPE cells; 1 μM vs DMSO vehicle): sensitized cells to LINE-1

O=c1[nH]cnc2c1ncn2[C@H]1CC[C@@H](CO)O1 [didanosine]
effect on LINE-1-induced IFN response [1]: attenuated the IFN response

COc1cccc2c1C(=O)c1c(O)c3c(c(O)c1C2=O)C[C@@](O)(C(=O)CO)C[C@@H]3O[C@H]1C[C@H](N)[C@H](O)[C@H](C)O1 [doxorubicin]
DNA damage foci (γH2A.X and 53BP1) over the cell cycle (TP53KD cells): continue to accumulate

NC(=O)NO [hydroxyurea]
number of FANCD2 foci (HeLa cells): increased the number of FANCD2 foci

Nc1ccn([C@H]2CC[C@@H](CO)O2)c(=O)n1 [zalcitabine]
effect on LINE-1-induced IFN response [1]: attenuated the IFN response

pladienolide B [PLA-B]
reduction of luciferase(+) clonogenic growth (luciferase(+) cells; same PLA-B dose as for LINE-1(+) cells): 6.8% | increased sensitivity of LINE-1(+) vs luciferase(+) cells (LINE-1(+) RPE cells; P=0.044): 4.1 fold | fewer colonies of LINE-1(+) cells (LINE-1(+) RPE cells; same PLA-B dose as for luciferase(+) cells): 27.8%
